Legend:
Format in all cases: biochemical
[1] = Activity against free radicals, Method D (xanthine oxidase, NBT reduction); settings: optical density at 490 nm
Protocol: (§1) The effectiveness of the test substances against free radicals was tested by various chemical and biochemical methods: • Method A A first test was carried out using diphenylpicrylhydrazyl (DPPH°) which is a relatively stable radical that forms a purple-colored solution. The optical density (DO) at 513 nm was determined. • Method B Hydroxyl radicals were released from hydrogen peroxide in the presence of iron(II) ions and EDTA and were used to oxidize deoxyribose. The oxidation product forms a pink-colored compound with thiobarbituric acid. Its concentration corresponds to the optical density at 532 nm. […] The superoxide anions dismute into hydrogen peroxide and oxygen either spontaneously or in the presence of Superoxid Dismutase. The quantity of superoxide anion can be determined by NBT reduction via the optical density at 490 nm. A test was conducted to determine whether fewer superoxide anions are generated or more anions are destroyed in the presence of the test substances. The results are set out in Table 1 and represent the EC50 values in % (w/v).

[2] = Activity against free radicals, Method A (DPPH° test); settings: optical density at 513 nm
Protocol: as §1

[3] = Activity against free radicals, Method C (deoxyribose oxidation in the absence of EDTA); settings: as Method B in the absence of EDTA
Protocol: as §1

[4] = Activity against free radicals, Method B (hydroxyl radicals, deoxyribose oxidation with EDTA); settings: hydrogen peroxide, iron(II) ions and EDTA, optical density at 532 nm
Protocol: as §1

| Effect against free radicals, Method D, EC50 [1] | Effect against free radicals, Method A, EC50 [2] | Effect against free radicals, Method C, EC50 [3] | Effect against free radicals, Method B, EC50 [4] | Compound |
| --- | --- | --- | --- | --- |
| No effect | 0.0067 % (w/v) | – | – | Tocopherol |
| 0.591 % (w/v) | 0.0013 % (w/v) | 0.9 % (w/v) | 0.261 % (w/v) | O=C1O[C@H]([C@@H](O)CO)C(O)=C1O [Ascorbic acid] |

Reference: US20050095305A1, “Anti-aging agents” (priority 2001, published 2005)
